test system: Rif^R APEC O78; test: Efficacy of QSIs in APEC-infected chickens (oral gavage pilot); type: in vivo, Escherichia coli; settings: Table S1; lesion score; oral gavage pilot; PC 1.25
Protocol: The chicken experiment was carried out using 1-day-old broiler chickens (Mayer Hatchery, OH, USA). Feed and water were given ad libitum. Chickens (n = 6/group) were administered with the QSIs (QSI-1, QSI-2, QSI-5 − 8, QSI-10, ChemBridge, San Diego, CA); previously designated as C1, C2, C5, C6, C7, C8, C10 ([17]) using oral gavage. These compounds were selected based on their high efficacy in in vitro studies and the doses correspond to 30X of the initial in vitro screening concentration ([17]). The QSIs were suspended in dimethyl sulfoxide (DMSO; used as a vehicle) and administered once daily for 5 successive days (starting from day 4 to day 8). The first dose was administered 1 day before the challenge, followed by the second dose on the challenge day (2 h before challenge), followed by three additional doses on subsequent days. Feeders were removed 1 h prior to the treatment and replaced 1 h after the treatment. Chickens were challenged subcutaneously (s/c) on day 5 with Rif^R APEC O78 (1 × 10^7 CFU/bird) in PBS using syringe (27 gauge, 0.5 in.). The challenge dose, which […], was chosen based on preliminary experiments conducted with different infection routes (subcutaneous s/c, intra-tracheal and intra-airsacs) and different doses (10^6, 10^7, and 10^8 CFU/chicken). […] Therefore, we selected this challenge dose and route for evaluation of QSIs in chickens ([34]). The positive (PC; infected with APEC O78 and DMSO treated) and negative (NC; non-infected and non-treated) control groups were included.
Chickens were monitored for clinical signs for 8 DPI. Any chickens moribund during this period were humanely euthanized and necropsied to determine bacterial load in the internal organs (liver, heart, lung, and kidney). Internal organs were aseptically collected, weighed and suspended in 1× PBS, the amount of PBS added was adjusted based on the organ size to make a suspension, the organ size and amount of PBS added were included in the final calculation of the CFU. The samples were homogenized, serially diluted 10-fold, plated on MacConkey agar (Remel, CA, USA) containing 50 μg/mL rifampicin, and incubated at 37°C for 24 h to determine the CFU/g. Pathological lesions severity in internal organs (pericarditis, perihepatitis, airsacculitis, and lung congestion) was scored as described previously ([21], [59]). At 8 DPI, the remaining chickens were humanely euthanized and necropsied, lesions were scored, and the APEC load was quantified in internal organs as described above.

Compound | Average lesion severity, Lung
CCc1ccccc1NC1NC(c2c(C)nc3ccccn23)=CS1 (stereo not shown) [QSI-8] | 0.17
Cc1ccccc1N1CCN(C2CCCN(C(=O)c3ccc(F)c(Cl)c3)C2)CC1 (stereo not shown) [QSI-2] | 0.17
OCCC1CN(C2CCN(c3ccccc3)CC2)CCN1CCCc1ccccc1 (stereo not shown) [QSI-10] | 0.00
COCCN1CCC(CN(Cc2cccnc2)Cc2ccccc2Cl)CC1 [QSI-1] | 0.50

same assay, conditions: Table S1; lesion score; oral gavage pilot; PC 1.75

Compound | Average lesion severity, Liver
CCc1ccccc1NC1NC(c2c(C)nc3ccccn23)=CS1 (stereo not shown) [QSI-8] | 0.50
Cc1ccccc1N1CCN(C2CCCN(C(=O)c3ccc(F)c(Cl)c3)C2)CC1 (stereo not shown) [QSI-2] | 1.00
OCCC1CN(C2CCN(c3ccccc3)CC2)CCN1CCCc1ccccc1 (stereo not shown) [QSI-10] | 0.00
COCCN1CCC(CN(Cc2cccnc2)Cc2ccccc2Cl)CC1 [QSI-1] | 2.17

same assay, conditions: Table S1; lesion score; oral gavage pilot; PC 2.00

Compound | Average lesion severity, Airsac
CCc1ccccc1NC1NC(c2c(C)nc3ccccn23)=CS1 (stereo not shown) [QSI-8] | 0.50
Cc1ccccc1N1CCN(C2CCCN(C(=O)c3ccc(F)c(Cl)c3)C2)CC1 (stereo not shown) [QSI-2] | 0.92
OCCC1CN(C2CCN(c3ccccc3)CC2)CCN1CCCc1ccccc1 (stereo not shown) [QSI-10] | 0.17
COCCN1CCC(CN(Cc2cccnc2)Cc2ccccc2Cl)CC1 [QSI-1] | 1.83

same assay, conditions: Table S1; lesion score; oral gavage pilot; PC 2.25

Compound | Average lesion severity, Heart
CCc1ccccc1NC1NC(c2c(C)nc3ccccn23)=CS1 (stereo not shown) [QSI-8] | 0.50
Cc1ccccc1N1CCN(C2CCCN(C(=O)c3ccc(F)c(Cl)c3)C2)CC1 (stereo not shown) [QSI-2] | 1.67
OCCC1CN(C2CCN(c3ccccc3)CC2)CCN1CCCc1ccccc1 (stereo not shown) [QSI-10] | 0.33
COCCN1CCC(CN(Cc2cccnc2)Cc2ccccc2Cl)CC1 [QSI-1] | 3.00

same assay, conditions: Table S1; oral gavage pilot, n = 6/group, 8 DPI; PC 66.6 (4/6)

Compound | Mortality rate % (Nr.) [%]
CCc1ccccc1NC1NC(c2c(C)nc3ccccn23)=CS1 (stereo not shown) [QSI-8] | 33.3
Cc1ccccc1N1CCN(C2CCCN(C(=O)c3ccc(F)c(Cl)c3)C2)CC1 (stereo not shown) [QSI-2] | 33.3
OCCC1CN(C2CCN(c3ccccc3)CC2)CCN1CCCc1ccccc1 (stereo not shown) [QSI-10] | 16.6
COCCN1CCC(CN(Cc2cccnc2)Cc2ccccc2Cl)CC1 [QSI-1] | 50

same assay, conditions: Table S1; oral gavage pilot; PC 5.95

Compound | Average APEC load, Liver
CCc1ccccc1NC1NC(c2c(C)nc3ccccn23)=CS1 (stereo not shown) [QSI-8] | 3.48 Log CFU/g of tissue
Cc1ccccc1N1CCN(C2CCCN(C(=O)c3ccc(F)c(Cl)c3)C2)CC1 (stereo not shown) [QSI-2] | 4.20 Log CFU/g of tissue
OCCC1CN(C2CCN(c3ccccc3)CC2)CCN1CCCc1ccccc1 (stereo not shown) [QSI-10] | 2.50 Log CFU/g of tissue
COCCN1CCC(CN(Cc2cccnc2)Cc2ccccc2Cl)CC1 [QSI-1] | 5.30 Log CFU/g of tissue

same assay, conditions: Table S1; oral gavage pilot; PC 5.98

Compound | Average APEC load, Heart
CCc1ccccc1NC1NC(c2c(C)nc3ccccn23)=CS1 (stereo not shown) [QSI-8] | 3.60 Log CFU/g of tissue
Cc1ccccc1N1CCN(C2CCCN(C(=O)c3ccc(F)c(Cl)c3)C2)CC1 (stereo not shown) [QSI-2] | 4.87 Log CFU/g of tissue
OCCC1CN(C2CCN(c3ccccc3)CC2)CCN1CCCc1ccccc1 (stereo not shown) [QSI-10] | 2.50 Log CFU/g of tissue
COCCN1CCC(CN(Cc2cccnc2)Cc2ccccc2Cl)CC1 [QSI-1] | 5.63 Log CFU/g of tissue

same assay, conditions: Table S1; oral gavage pilot; PC 6.81

Compound | Average APEC load, Kidney
CCc1ccccc1NC1NC(c2c(C)nc3ccccn23)=CS1 (stereo not shown) [QSI-8] | 3.65 Log CFU/g of tissue
Cc1ccccc1N1CCN(C2CCCN(C(=O)c3ccc(F)c(Cl)c3)C2)CC1 (stereo not shown) [QSI-2] | 5.07 Log CFU/g of tissue
OCCC1CN(C2CCN(c3ccccc3)CC2)CCN1CCCc1ccccc1 (stereo not shown) [QSI-10] | 2.47 Log CFU/g of tissue
COCCN1CCC(CN(Cc2cccnc2)Cc2ccccc2Cl)CC1 [QSI-1] | 6.28 Log CFU/g of tissue

same assay, conditions: Table S1; oral gavage pilot; PC 6.83

Compound | Average APEC load, Lung
CCc1ccccc1NC1NC(c2c(C)nc3ccccn23)=CS1 (stereo not shown) [QSI-8] | 4.60 Log CFU/g of tissue
Cc1ccccc1N1CCN(C2CCCN(C(=O)c3ccc(F)c(Cl)c3)C2)CC1 (stereo not shown) [QSI-2] | 5.15 Log CFU/g of tissue
OCCC1CN(C2CCN(c3ccccc3)CC2)CCN1CCCc1ccccc1 (stereo not shown) [QSI-10] | 3.08 Log CFU/g of tissue
COCCN1CCC(CN(Cc2cccnc2)Cc2ccccc2Cl)CC1 [QSI-1] | 5.92 Log CFU/g of tissue

same assay, conditions: chickens, QSI oral gavage once daily 5 days, s/c APEC O78 1 × 10^7 CFU/bird; PC mortality normalized to 100%

Compound | reduction in mortality compared with the PC group [%]
CCc1ccccc1NC1NC(c2c(C)nc3ccccn23)=CS1 (stereo not shown) [QSI-8] | 50
Cc1ccccc1N1CCN(C2CCCN(C(=O)c3ccc(F)c(Cl)c3)C2)CC1 (stereo not shown) [QSI-2] | 50
COCCN1CCC(CN(Cc2cccnc2)Cc2ccccc2Cl)CC1 [QSI-1] | 25

same assay, conditions: chickens, QSI oral gavage once daily 5 days, s/c APEC O78 1 × 10^7 CFU/bird; range over organs

Compound | average APEC load reduction in the internal organs (liver, heart, lung, kidney) compared with PC
COCCN1CCC(CN(Cc2cccnc2)Cc2ccccc2Cl)CC1 [QSI-1] | did not reduce the APEC load

From article PMC9241644, “Evaluation of Novel Quorum Sensing Inhibitors Targeting Auto-Inducer 2 (AI-2) for the Control of Avian Pathogenic Escherichia coli Infections in Chickens” (Microbiology Spectrum, 2022)
